From ChEMBL document CHEMBL2346659, “Anti-adipogenic diarylheptanoids from Alnus hirsuta f. sibirica on 3T3-L1 cells” (Bioorg Med Chem Lett, 2013)
Active and inactive are the calls of the source. The rule behind the calls is not given here.

Legend:
3T3-L1 [1] = test: Inhibition of differentiation of mouse 3T3L1 cells assessed as lipid accumulation at 10 uM after 8 days by using Oil Red O staining by spectrophotometry relative to control; assay type: functional
3T3-L1 [2] = test: Inhibition of differentiation of mouse 3T3L1 cells assessed as lipid accumulation at 50 uM after 8 days by using Oil Red O staining by spectrophotometry relative to control; assay type: functional
3T3-L1 [3] = test: Inhibition of differentiation of mouse 3T3L1 cells assessed as lipid accumulation at 100 uM after 8 days by using Oil Red O staining by spectrophotometry relative to control; assay type: functional
3T3-L1 [4] = test: Cytotoxicity against mouse 3T3L1 cells at 100 uM; assay type: cell-based; details: 3t3-l1, 100 µM
3T3-L1 [5] = test: Inhibition of differentiation of mouse 3T3L1 cells assessed as reduction of lipid accumulation after 8 days by using Oil Red O staining by spectrophotometry relative to control; assay type: functional, cell-based
3T3-L1 [6] = test: Induction of differentiation of mouse 3T3L1 cells assessed as lipid accumulation at 10 uM after 8 days by using Oil Red O staining by spectrophotometry relative to control; assay type: cell-based; details: 3t3-l1, 192 h
3T3-L1 [7] = test: Antiadipogenic activity in mouse 3T3L1 cells assessed as inhibition of PPAR-gamma expression at 10 to 50 uM after 8 days by Western blot analysis; assay type: functional, cell-based
3T3-L1 [8] = test: Antiadipogenic activity in mouse 3T3L1 cells assessed as inhibition of C/EBPalpha expression at 10 to 50 uM after 8 days by Western blot analysis; assay type: functional, cell-based
3T3-L1 [9] = test: Inhibition of differentiation of mouse 3T3L1 cells assessed as lipid accumulation at 100 uM after 8 days by using Oil Red O staining by spectrophotometry relative to control in presence of troglitazone; assay type: functional; parameters: scale not given: the % may be the effect or the level left

| SMILES | Lipid accumulation relative to control (3T3-L1 [1]) [%] | Lipid accumulation (% of control) (3T3-L1 [2]) [%] | Lipid accumulation (% of control) (3T3-L1 [3]) [%] | Activity (3T3-L1 [4]) | inhibition (3T3-L1 [5]) | Activity (3T3-L1 [6]) [%] | inhibition (3T3-L1 [7]) | inhibition (3T3-L1 [8]) | Activity (3T3-L1 [9]) [%] |
| --- | --- | --- | --- | --- | --- | --- | --- | --- | --- |
| Oc1ccc(CCCC[C@@H](O)CCc2ccc(O)c(O)c2)cc1O | 84.6 | 86.4 | 90 |  |  |  |  |  |  |
| Oc1ccc(CC[C@@H](O)C[C@H](O)CCc2ccc(O)cc2)cc1 [(+)-HANNOKINOL] | 90.2 | 61.2 |  | Toxic |  |  |  |  |  |
| O=C(CCc1ccc(O)c(O)c1)C[C@@H](O)CCc1ccc(O)c(O)c1 [HIRSUTANONOL] | 83.9 | 72.6 | 59.9 |  | Dose-dependent effect |  |  |  |  |
| O=C(/C=C/C=C/c1ccc(O)c(O)c1)CCc1ccc(O)c(O)c1 | 104.4 | 108.9 | 103 |  |  |  |  |  |  |
| O=C(/C=C/CCc1ccc(O)c(O)c1)CCc1ccc(O)c(O)c1 [DEHYDROHIRSUTANONOL] | 86.1 | 45.7 | 38.6 |  | Dose-dependent effect |  |  |  |  |
| O=C(/C=C/CCc1ccc(O)c(O)c1)/C=C/c1ccc(O)c(O)c1 | 86.5 | 66.5 | 36.5 |  | Dose-dependent effect |  |  |  |  |
| O=C(/C=C/c1ccc(O)c(O)c1)C[C@@H](O)CCc1ccc(O)cc1 | 92.6 | 81.8 | 58.8 |  | Dose-dependent effect |  |  |  |  |
| OC[C@H]1O[C@@H](O[C@H](CCCCc2ccc(O)cc2)CCc2ccc(O)cc2)[C@H](O)[C@@H](O)[C@@H]1O | 76 | 103.1 | 98.1 |  |  |  |  |  |  |
| O=C(CCc1ccc(O)cc1)C[C@@H](O)CCc1ccc(O)c(O)c1 | 77.3 | 70.5 | 57.6 |  | Dose-dependent effect |  |  |  |  |
| O=C(O[C@@H]1Cc2c(O)cc(O)cc2O[C@@H]1c1cc(O)c(O)c(O)c1)c1cc(O)c(O)c(O)c1 [EPIGALOCATECHIN GALLATE] | 94.9 | 81.9 | 54.5 |  |  |  |  |  |  |
| Cc1c(C)c2c(c(C)c1O)CCC(C)(COc1ccc(CC3SC(=O)NC3=O)cc1)O2 (stereo not drawn) [TROGLITAZONE] |  |  |  |  |  | 107.1 |  |  |  |
| O=C(CCc1ccc(O)cc1)C[C@H](CCc1ccc(O)cc1)O[C@@H]1OC[C@@H](O)[C@H](O)[C@H]1O | 81.7 | 28.9 | 14.4 |  | Dose-dependent effect |  | Active | Active | 20.8 |
